For assay [1], the system named is MDA-MB-231. In words: Cytotoxicity against human MDA-MB-231 cells after 72 hrs by MTT assay. The class given is functional, cell-based. The settings on record: MDA-MB-231, 72 h. (In general: Tetrazolium assays rely on reduction of a dye to a coloured formazan, in cell work by metabolically active cells.)
The subject of assay [2] is Jurkat. In words: Cytotoxicity against human Jurkat cells after 24 hrs by CellTitre-Blue assay. The class given is functional, cell-based.
Assay [3] relates to HeLa. In words: Cytotoxicity against human HeLa cells after 72 hrs by MTT assay. The class given is functional, cell-based.
A short description of assay [4]: Cytotoxicity against human KG1a cells after 24 hrs by CellTitre-Blue assay. The class given is functional, cell-based. As to conditions: KG-1a.
For assay [5], the target named is Apoptosis regulator Bcl-2 (Homo sapiens, UniProt P10415). In words: Competitive binding affinity to his-tagged Bcl-2 (unknown origin) after 1 hr by ELISA in presence of Bim peptide. For orientation: An ELISA detects its analyte on a solid surface through an enzyme-linked reagent.
Chain of Apoptosis regulator Bcl-2 (P10415 whole entry): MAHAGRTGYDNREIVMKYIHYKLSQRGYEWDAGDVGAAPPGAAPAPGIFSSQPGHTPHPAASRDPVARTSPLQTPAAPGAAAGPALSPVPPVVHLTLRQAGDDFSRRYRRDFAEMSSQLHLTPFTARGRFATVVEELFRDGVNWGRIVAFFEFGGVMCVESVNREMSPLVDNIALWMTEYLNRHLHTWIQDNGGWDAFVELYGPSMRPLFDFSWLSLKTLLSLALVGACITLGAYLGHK

pIC50: −log10 of the molar value.

In general, pIC50 refers to the negative decadic logarithm of the IC50, by convention in mol/L. Consider `COc1ccc(CSc2nnc(-c3c[nH]c4ccccc34)n2N)cc1`, for which the pIC50 in assay [1] is 5.77; in assay [2], < 4.00; in assay [3] it was 6.12; in assay [4] it was < 4.00.
Consider `Cc1ccc(CSc2nnc(-c3c[nH]c4ccccc34)n2N)cc1`, for which the pIC50 was 4.98 in assay [1], < 4.00 in assay [2], 5.27 in assay [3] and < 4.00 in assay [4].
For `Nn1c(SCc2ccccc2)nnc1-c1c[nH]c2ccccc12`, the pIC50 in assay [1] was 4.58; in assay [2] it was < 4.00; in assay [3] it was 5.64; in assay [4], 4.76.
Consider `Nn1c(SCc2ccccc2[N+](=O)[O-])nnc1-c1c[nH]c2ccccc12`, for which the pIC50 in assay [1] is 5.02; in assay [2] it was < 4.00; in assay [3], 5.60; in assay [4], 4.68.
`Nn1c(SCc2cccc([N+](=O)[O-])c2)nnc1-c1c[nH]c2ccccc12`: the pIC50 in assay [1] is 6.51; in assay [5], 5.84; in assay [2], < 4.00; in assay [3], 6.40; in assay [4], 6.19.
For the compound `Nn1c(SCc2ccc([N+](=O)[O-])cc2)nnc1-c1c[nH]c2ccccc12`, the pIC50 in assay [1] is 6.13; in assay [2], < 4.00; in assay [3], 6.60; in assay [4], 5.16.
For the compound `Nn1c(SCc2ccc(F)cc2)nnc1-c1c[nH]c2ccccc12`, the pIC50 in assay [1] was 5.87; in assay [2] it was < 4.00; in assay [3], 6.54; in assay [4], 4.88.
For the compound `Nn1c(SCc2ccc(Br)cc2)nnc1-c1c[nH]c2ccccc12`, the pIC50 in assay [1] was 4.15; in assay [2], < 4.00; in assay [3] it was 5.10; in assay [4], 4.25.
For `COc1cccc(CSc2nnc(-c3c[nH]c4ccccc34)n2N)c1`, the pIC50 is 4.81 in assay [1], < 4.00 in assay [2], 5.76 in assay [3] and 4.89 in assay [4].

These data come from ChEMBL document CHEMBL2375247, “Synthesis and evaluation of 3-(benzylthio)-5-(1H-indol-3-yl)-1,2,4-triazol-4-amines as Bcl-2 inhibitory anticancer agents” (Bioorg Med Chem Lett, 2013).
